Experiments:
Experiment in all cases: relative viability (nuclei count vs DMSO), 5 days (fraction); higher = more cells survive
[1] = compound: COc1cc2ncn(-c3cc(OCc4ccccc4C(F)(F)F)c(C(N)=O)s3)c2cc1OC + CS(=O)(=O)N1CCN(Cc2cc3nc(-c4cccc5[nH]ncc45)nc(N4CCOCC4)c3s2)CC1 [Pictilisib] (partner 1 µM)
Summary of the method: (§1)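 Lung cancer cell lines in 1536-well plates were dosed by pin tool the day after seeding, either with one drug alone or with a fixed anchor-drug dose plus five library-drug doses (not always all listed) in √10 steps. After 5 days, cells were fixed and their nuclei stained in one step (final 0.05% Triton X-100, 1% formaldehyde, 1 ug/ml Hoechst), then counted on 4× images. Relative viability is the nuclei count in treated wells divided by that in vehicle wells. Values are medians of duplicate plates.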

[2] = compound: COc1cc2ncn(-c3cc(OCc4ccccc4C(F)(F)F)c(C(N)=O)s3)c2cc1OC + Cc1nc(NC(=O)N2CCC[C@H]2C(N)=O)sc1-c1ccnc(C(C)(C)C(F)(F)F)c1 [Alpelisib] (partner 2 µM)
Summary of the method: as §1

[3] = compound: COc1cc2ncn(-c3cc(OCc4ccccc4C(F)(F)F)c(C(N)=O)s3)c2cc1OC + N=C(N)NC(=N)NCCc1ccccc1 [Phenformin] (partner 250 µM)
Summary of the method: as §1

[4] = compound: COc1cc2ncn(-c3cc(OCc4ccccc4C(F)(F)F)c(C(N)=O)s3)c2cc1OC + NC(=O)Nc1cc(-c2cccc(F)c2)sc1C(=O)N[C@H]1CCCNC1 [AZD7762] (partner 0.2 µM)
Summary of the method: as §1

Row | Cell Line | relative viability ([1]; first compound 0.05 µM) | relative viability ([1]; first compound 0.1581 µM) | relative viability ([1]; first compound 0.5 µM) | relative viability ([1]; first compound 1.581 µM) | relative viability ([1]; first compound 5 µM) | relative viability ([2]; first compound 0.05 µM) | relative viability ([2]; first compound 0.1581 µM) | relative viability ([2]; first compound 0.5 µM) | relative viability ([2]; first compound 1.581 µM) | relative viability ([2]; first compound 5 µM) | relative viability ([3]; first compound 0.05 µM) | relative viability ([3]; first compound 0.1581 µM) | relative viability ([3]; first compound 0.5 µM) | relative viability ([3]; first compound 1.581 µM) | relative viability ([3]; first compound 5 µM) | relative viability ([4]; first compound 0.05 µM) | relative viability ([4]; first compound 0.1581 µM) | relative viability ([4]; first compound 0.5 µM) | relative viability ([4]; first compound 1.581 µM) | relative viability ([4]; first compound 5 µM)
1 | HCC-366 | 0.149 | 0.12 | 0.0681 | 0.0359 | 0.015 | 0.656 | 0.246 | 0.123 | 0.0134 | 0.0086 | 0.612 | 0.534 | 0.301 | 0.0215 | 0.0222 | 0.51 | 0.431 | 0.385 | 0.0175 | 0.0105
2 | HCC-827 | 0.917 | 1.13 | 0.968 | 0.77 | 0.56 | 0.887 | 1.03 | 0.667 | 0.286 | 0.226 | 0.468 | 0.426 | 0.33 | 0.22 | 0.181 | 0.229 | 0.246 | 0.185 | 0.201 | 0.161
3 | HOP-62 | 0.753 | 0.805 | 0.566 | 0.123 | 0.0836 | 1.02 | 0.837 | 0.752 | 0.199 | 0.116 | 0.67 | 0.664 | 0.53 | 0.15 | 0.108 | 0.523 | 0.714 | 0.316 | 0.118 | 0.0755
4 | IA-LM | 0.46 | 0.262 | 0.0711 | 0.0659 | 0.0766 | 0.701 | 0.493 | 0.107 | 0.0655 | 0.0465 | – | – | – | – | – | – | – | – | – | –
5 | LC-2-ad | 0.383 | 0.108 | 0.0797 | 0.0935 | 0.0834 | 0.791 | 0.784 | 0.135 | 0.113 | 0.1 | 0.527 | 0.578 | 0.313 | 0.274 | 0.316 | 0.769 | 0.896 | 0.576 | 0.14 | 0.129
6 | LCLC-97TM1 | 0.203 | 0.2 | 0.123 | 0.134 | 0.125 | 0.244 | 0.238 | 0.144 | 0.139 | 0.127 | 0.398 | 0.492 | 0.353 | 0.154 | 0.148 | 0.355 | 0.293 | 0.161 | 0.0896 | 0.0604
7 | LCLC-103H | 0.594 | 0.695 | 0.54 | 0.271 | 0.135 | 0.966 | 1.04 | 0.997 | 0.389 | 0.248 | 0.386 | 0.397 | 0.279 | 0.178 | 0.127 | 0.75 | 0.876 | 0.707 | 0.375 | 0.242
8 | NCI-H520 | 0.29 | 0.316 | 0.345 | 0.193 | 0.172 | 1.08 | 0.882 | 0.508 | 0.186 | 0.158 | 0.598 | 0.642 | 0.269 | 0.266 | 0.211 | – | – | – | – | –
9 | NCI-H661 | 0.486 | 0.328 | 0.458 | 0.259 | 0.257 | 0.855 | 0.367 | 0.499 | 0.26 | 0.224 | 0.28 | 0.249 | 0.2 | 0.21 | 0.18 | – | – | – | – | –
10 | NCI-H1299 | 0.77 | 0.699 | 0.18 | 0.142 | 0.132 | 1.04 | 0.979 | 0.788 | 0.326 | 0.654 | – | – | – | – | – | – | – | – | – | –
11 | NCI-H1563 | 0.684 | 0.607 | 0.683 | 0.55 | 0.5 | 0.953 | 1.02 | 0.917 | 0.745 | 0.599 | 0.709 | 0.628 | 0.65 | 0.528 | 0.452 | – | – | – | – | –
12 | NCI-H1648 | – | – | – | – | – | – | – | – | – | – | – | – | – | – | – | 0.699 | 0.721 | 0.637 | 0.25 | 0.214
13 | NCI-H1650 | 0.52 | 0.615 | 0.322 | 0.156 | 0.146 | – | – | – | – | – | 0.389 | 0.341 | 0.175 | 0.129 | 0.179 | – | – | – | – | –
14 | NCI-H1703 | 0.256 | 0.227 | 0.2 | 0.126 | 0.172 | 0.3 | 0.368 | 0.271 | 0.142 | 0.12 | – | – | – | – | – | 0.141 | 0.131 | 0.104 | 0.119 | 0.104
15 | NCI-H2009 | 0.783 | 0.417 | 0.325 | 0.166 | 0.152 | 1.07 | 1.05 | 0.667 | 0.169 | 0.154 | 0.436 | 0.333 | 0.192 | 0.124 | 0.111 | – | – | – | – | –
16 | NCI-H2023 | 0.228 | 0.287 | 0.196 | 0.12 | 0.0888 | 0.547 | 0.634 | 0.61 | 0.0955 | 0.0801 | 0.328 | 0.395 | 0.229 | 0.0904 | 0.0857 | – | – | – | – | –
17 | NCI-H2228 | 0.331 | 0.423 | 0.237 | 0.165 | 0.303 | 0.612 | 0.866 | 0.186 | 0.187 | 0.272 | 0.305 | 0.337 | 0.155 | 0.121 | 0.144 | – | – | – | – | –
18 | NCI-H2342 | – | – | – | – | – | – | – | – | – | – | 0.631 | 0.652 | 0.457 | 0.379 | 0.299 | 0.593 | 0.476 | 0.374 | 0.38 | 0.425
19 | SK-LU-1 | 0.568 | 0.516 | 0.423 | 0.213 | 0.178 | 1.02 | 0.778 | 0.276 | 0.291 | 0.306 | 0.563 | 0.519 | 0.216 | 0.163 | 0.15 | – | – | – | – | –
20 | SK-MES-1 | 0.343 | 0.414 | 0.292 | 0.132 | 0.213 | 0.924 | 0.883 | 0.639 | 0.148 | 0.553 | 0.559 | 0.636 | 0.234 | 0.197 | 0.121 | – | – | – | – | –
21 | SW 1573 | 0.529 | 0.377 | 0.367 | – | 0.176 | 0.828 | 0.669 | 0.629 | 0.326 | 0.182 | 0.232 | 0.413 | 0.143 | 0.103 | 0.0927 | – | – | – | – | –
22 | UMC-11 | 0.727 | 0.81 | 0.226 | 0.149 | 0.121 | 0.872 | 0.928 | 0.128 | 0.106 | 0.101 | 0.271 | 0.201 | 0.158 | 0.173 | 0.168 | – | – | – | – | –
